Measured values taken from patent publication US6518278B1, “Carcinostatic substance for compatible administration, process of administrating same and process of rapidly inspecting same” (Debio Pharm S.A., priority 1994, dated 2003).
Entries after “also recorded” stand apart in the source; their conditions may differ.

Tested on: human leutecyte strain cell (RPMI-8402)
Experiment: Extinction effect of compatible administration of l-OHP and a compatible agent on tumor cells (compatible efficiency OE)
Assay type: cell-based
Conditions: for Compatible Effects of l-OHP and Compatible Agent, Simultaneous Administration: both added day 1
Description: In the evaluation of the extinction effect of the tumor cells of the respective combinations, a pure extinction effect produced by the compatible administration of the compatible agent and the l-OHP is calculated by subtracting an extinction effect of a control (no carcinostatic substance is employed).
The compatibly administration effect is calculated by employing an Equation (1) described later. When the value (%) calculated by this Equation is between 85 and 115%, the compatible administration effect is evaluated to be an additive effect. When the value is below 85%, it is evaluated to be below the additive effect. When the value is over 115%, it is evaluated to be a synergistic effect, ±15% is a reliability limit or a measurement error.
A target tumor cell was a human leutecyte strain cell (RPMI-8402 of Gibuko K.K.). To these cells was added blood serum of a cow embryo (15%, Gibuko K.K.) to prepare a cell floating liquid of which the number of the cells was 10^6/ml in a cultivation bottle (tradename; Sumiron of Sumitomo Bakelite o., Ltd.) having a volume of 6 ml. A plenty of the cultivation bottles having the cell floating liquid therein were prepared, and the following experiments were conducted while selecting one kind of a compatible agent among cisplatin, 5-FU, irinotecane, adriamycin, etoposide, mitomycin, mitoxantrone, bleomycin, vincristin and vindecin. The time schedules of the controls (no addition of medicines, addition of only the l-OHP and addition of only a compatible agent, and specified in the below items (1) to (4)) and of the compatible administration of the compatible agent and the l-OHP are shown in FIG. 10.
(1) No medicine was added (control).
(2) Only the l-OHP was added at a second day.
(3) A large amount of compatible agents were added at a first day ([…] of the cisplatin, 10 μg/ml of the 5-FU, 0.05 μg/ml of the adriamycin and 1 μg/ml of the etoposide, and for the comparison purpose, 0.05 μg/ml of the vincristin and 0.06 μg/ml of the vindecin). The adding amount of the irinotecano was fixed to 10 μg/ml, and the addition amount of the l-OHP was 5 μg/ml.
(4) A small amount of compatible agents were added at a first day (0.5 μg/ml of the cisplatin, 5 μg/ml of the 5-FU, 0.01 μg/ml of the adriamycin and 0.5 μg/ml of the etoposide, and for the comparison purpose, 0.01 μg/ml of the vincristin and 0.01 μg/ml of the vindecin). The adding amount of the irinotecane was fixed to 10 μg/ml, and the addition amount of the l-OHP was 1 μg/ml.
(5) The l-OHP and a large amount (the same as that of the above item (3) and so forth in the following items) of the compatible agents were simultaneously added at a first day.
(6) The l-OHP and a small amount (the same as that of the above item (4) and so forth in the following items) of the compatible agents were simultaneously added at a first day.
(7) The l-OHP was added at a first day and a large amount of the compatible agents were added at a second day.
(8) The l-OHP was added at a first day and a small amount of the compatible agents were added at a second day.
(9) The l-OHP was added at a first day and a large amount of the compatible agents were added at a third day.
(10) The l-OHP was added at a first day and a small amount of the compatible agents were added at a third day.
(11) The l-OHP was added at a first day and a large amount of the compatible agents were added at a fourth day.
(12) The l-OHP was added at a first day and a small amount of the compatible agents were added at a fourth day.
(13) A large amount of the compatible agents were added at a first day and the l-OHP was added at a second day.
(14) A small amount of the compatible agents were added at a first day and the l-OHP was added at a second day.
(15) A large amount of the compatible agents were added at a first day and the l-OHP was added at a third day.
(16) A small amount of the compatible agents were added at a first day and the l-OHP was added at a third day.

[1] = larger dosage of compatible agent (μg/ml: cisplatin 1, 5-FU 10, irinotecane 10, adriamycin 0.05, vincristin 0.05, vindecin 0.05, etoposide 1, bleomycin 10, mitoxantrone 0.1, mitomycine 1), l-OHP 1 μg/ml (5 μg/ml with irinotecane) added day 1
[2] = larger dosage of compatible agent (μg/ml: cisplatin 1, 5-FU 10, irinotecane 10, adriamycin 0.05, vincristin 0.05, vindecin 0.05, etoposide 1, bleomycin 10, mitoxantrone 0.1, mitomycine 1), l-OHP 1 μg/ml (5 μg/ml with irinotecane)
[3] = larger dosage of compatible agent added day 1 (μg/ml: cisplatin 1, 5-FU 10, irinotecane 10, adriamycin 0.05, vincristin 0.05, vindecin 0.05, etoposide 1, bleomycin 10, mitoxantrone 0.1, mitomycine 1), l-OHP 1 μg/ml (5 μg/ml with irinotecane)
[4] = smaller dosage of compatible agent (μg/ml: cisplatin 0.5, 5-FU 5, irinotecane 10, adriamycin 0.01, vincristin 0.01, vindecin 0.01, etoposide 0.5, bleomycin 1, mitoxantrone 0.05, mitomycine 0.5), l-OHP 1 μg/ml added day 1
[5] = smaller dosage of compatible agent (μg/ml: cisplatin 0.5, 5-FU 5, irinotecane 10, adriamycin 0.01, vincristin 0.01, vindecin 0.01, etoposide 0.5, bleomycin 1, mitoxantrone 0.05, mitomycine 0.5), l-OHP 1 μg/ml
[6] = smaller dosage of compatible agent added day 1 (μg/ml: cisplatin 0.5, 5-FU 5, irinotecane 10, adriamycin 0.01, vincristin 0.01, vindecin 0.01, etoposide 0.5, bleomycin 1, mitoxantrone 0.05, mitomycine 0.5), l-OHP 1 μg/ml

Structure (SMILES) | compatible administration effect with l-OHP, summary in words | Compatible Effects of l-OHP and Compatible Agent, Time Lag Administration, Addition Administration of Compatible Agent day 2 [1] | Compatible Effects of l-OHP and Compatible Agent, Time Lag Administration, Addition Administration of Compatible Agent day 3 [1] | Compatible Effects of l-OHP and Compatible Agent, Time Lag Administration, Addition Administration of Compatible Agent day 4 [1] | Compatible Effects of l-OHP and Compatible Agent, Simultaneous Administration [2] | Compatible Effects of l-OHP and Compatible Agent, Time Lag Administration, Addition Administration of l-OHP day 2 [3] | Compatible Effects of l-OHP and Compatible Agent, Time Lag Administration, Addition Administration of l-OHP day 3 [3] | Compatible Effects of l-OHP and Compatible Agent, Time Lag Administration, Addition Administration of l-OHP day 4 [3] | Compatible Effects of l-OHP and Compatible Agent, Time Lag Administration, Addition Administration of Compatible Agent day 2 [4] | Compatible Effects of l-OHP and Compatible Agent, Time Lag Administration, Addition Administration of Compatible Agent day 3 [4] | Compatible Effects of l-OHP and Compatible Agent, Time Lag Administration, Addition Administration of Compatible Agent day 4 [4] | Compatible Effects of l-OHP and Compatible Agent, Simultaneous Administration [5] | Compatible Effects of l-OHP and Compatible Agent, Time Lag Administration, Addition Administration of l-OHP day 2 [6] | Compatible Effects of l-OHP and Compatible Agent, Time Lag Administration, Addition Administration of l-OHP day 3 [6] | Compatible Effects of l-OHP and Compatible Agent, Time Lag Administration, Addition Administration of l-OHP day 4 [6]
COc1cccc2c1C(=O)c1c(O)c3c(c(O)c1C2=O)C[C@@](O)(C(=O)CO)C[C@@H]3O[C@H]1C[C@H](N)[C@H](O)[C@H](C)O1 [adriamycin] | the additive effect or the synergistic effect regardless of the administration method and the dosage in almost all the cases; also recorded: synergistic effects can be obtained in almost all the combinations when the l-OHP is added later | Δ (Δ: Below Additive Effect) | ◯ (◯: Additive Effect) | ◯ (◯: Additive Effect) | ◯ (◯: Additive Effect) | ◯ (◯: Additive Effect) | • (•: Synergistic Effect) | • (•: Synergistic Effect) | Δ (Δ: Below Additive Effect) | • (•: Synergistic Effect) | ◯ (◯: Additive Effect) | ◯ (◯: Additive Effect) | • (•: Synergistic Effect) | ◯ (◯: Additive Effect) | • (•: Synergistic Effect)
CCc1c2c(nc3ccc(OC(=O)N4CCC(N5CCCCC5)CC4)cc13)-c1cc3c(c(=O)n1C2)COC(=O)[C@]3(O)CC [irinotecane] | the additive effect or the synergistic effect regardless of the administration method and the dosage in almost all the cases; also recorded: synergistic effects can be obtained in all the combinations when the l-OHP is added later | ◯ (◯: Additive Effect) | ◯ (◯: Additive Effect) | Δ (Δ: Below Additive Effect) | ◯ (◯: Additive Effect) | ◯ (◯: Additive Effect) | • (•: Synergistic Effect) | • (•: Synergistic Effect) | ◯ (◯: Additive Effect) | ◯ (◯: Additive Effect) | ◯ (◯: Additive Effect) | ◯ (◯: Additive Effect) | • (•: Synergistic Effect) | • (•: Synergistic Effect) | • (•: Synergistic Effect)
